# ChEMBL document CHEMBL1159209, “Antineoplastic agents, 294. Variations in the formation of pancratistatin and related isocarbostyrils in Hymenocallis littoralis” (J Nat Prod, 1995)
# Activity calls are given as the source filed them. No cut-off for these calls is given here.
# Tests used:
# P388 = assay: In vivo cytotoxicity against mouse P388 cells; type: functional, organism-based
# M5076 = assay: In vivo cytotoxicity against mouse M5076 cells; type: functional, organism-based
smiles,measurement,setting,value
O=C1N[C@H]2[C@H](O)[C@H](O)[C@@H](O)[C@H](O)[C@@H]2c2cc3c(c(O)c21)OCO3,Activity,P388,Active
same,Activity,M5076,Active
